Experimental data reported in ChEMBL document CHEMBL4665653, “VU6005806/AZN-00016130, an advanced M positive allosteric modulator (PAM) profiled as a potential preclinical development candidate” (Bioorg Med Chem Lett, 2019).
Activity calls are given as the source filed them. No cut-off for these calls is given here.

Experiments:
[1] = organism: Rattus norvegicus; experiment: Displacement of [3H]-Rolipram from phosphodiesterases PDE4 receptor rolipram binding site in Wistar rat brain assessed as residual binding level for radioligand at 10 uM incubated for 60 mins; type: tissue-based
[2] = molecular target: Neuropeptide Y receptor type 2 (Homo sapiens) (UniProt P49146); experiment: Displacement of [125I]peptide YY from human Y2 receptor in KAN-TS cell membrane assessed as residual binding level for radioligand at 10 uM after 120 mins by scintillation counting analysis relative to control
[3] = molecular target: Muscarinic acetylcholine receptor M1 (Homo sapiens, UniProt P11229); experiment: Positive allosteric modulation of human M1 receptor
Muscarinic acetylcholine receptor M1 (Homo sapiens, UniProt P11229), sequence (P11229 whole entry): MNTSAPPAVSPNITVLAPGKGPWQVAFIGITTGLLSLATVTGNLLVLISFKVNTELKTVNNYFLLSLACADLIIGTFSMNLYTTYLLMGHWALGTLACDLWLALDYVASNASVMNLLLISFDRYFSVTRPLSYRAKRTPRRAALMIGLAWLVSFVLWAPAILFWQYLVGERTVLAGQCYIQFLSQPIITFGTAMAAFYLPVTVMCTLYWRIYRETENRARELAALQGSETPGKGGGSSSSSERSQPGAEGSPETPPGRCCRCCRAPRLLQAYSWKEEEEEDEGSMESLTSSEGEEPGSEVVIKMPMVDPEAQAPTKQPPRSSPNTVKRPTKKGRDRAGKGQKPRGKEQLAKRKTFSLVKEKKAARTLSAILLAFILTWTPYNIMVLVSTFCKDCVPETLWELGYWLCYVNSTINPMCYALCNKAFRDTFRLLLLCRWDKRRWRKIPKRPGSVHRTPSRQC

[4] = tested on: Mus musculus; experiment: Reversal of amphetamine-induced hyperlocomotion in C57BL/6 mouse at 0.1 to 10 mg/kg, po pretreated for 30 mins after habituation in chamber followed by amphetamine challenge and measured after 1 hr; type: functional, organism-based; conditions: dose mg/kg 0.1-10, time 30.0 min
[5] = Half life in cynomolgus monkey; type: ADME, Macaca fascicularis; conditions: in vivo
[6] = molecular target: Cytochrome P450 3A4 (Homo sapiens, UniProt P08684); experiment: Inhibition of CYP3A4 (unknown origin); type: ADME
Cytochrome P450 3A4, sequence (P08684 whole entry): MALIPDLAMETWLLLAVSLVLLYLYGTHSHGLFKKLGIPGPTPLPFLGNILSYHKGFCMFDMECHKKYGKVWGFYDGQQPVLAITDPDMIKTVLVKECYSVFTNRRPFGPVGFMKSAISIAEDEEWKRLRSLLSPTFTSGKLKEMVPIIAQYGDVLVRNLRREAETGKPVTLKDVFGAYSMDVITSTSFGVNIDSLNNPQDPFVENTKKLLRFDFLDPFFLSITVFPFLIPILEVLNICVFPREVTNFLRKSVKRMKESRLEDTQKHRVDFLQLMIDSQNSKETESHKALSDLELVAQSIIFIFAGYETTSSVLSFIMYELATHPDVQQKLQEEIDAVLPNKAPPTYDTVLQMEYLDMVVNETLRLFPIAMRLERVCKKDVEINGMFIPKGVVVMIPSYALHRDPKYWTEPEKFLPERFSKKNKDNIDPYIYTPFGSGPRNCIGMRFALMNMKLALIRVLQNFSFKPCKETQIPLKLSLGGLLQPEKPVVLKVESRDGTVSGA

[7] = molecular target: Muscarinic acetylcholine receptor M4 (Rattus norvegicus) (UniProt P08485); experiment: Positive allosteric modulation of rat M4 receptor relative to acetylcholine; conditions: filed as positive allosteric modulator
Muscarinic acetylcholine receptor M4 (Rattus norvegicus), sequence (P08485 whole entry): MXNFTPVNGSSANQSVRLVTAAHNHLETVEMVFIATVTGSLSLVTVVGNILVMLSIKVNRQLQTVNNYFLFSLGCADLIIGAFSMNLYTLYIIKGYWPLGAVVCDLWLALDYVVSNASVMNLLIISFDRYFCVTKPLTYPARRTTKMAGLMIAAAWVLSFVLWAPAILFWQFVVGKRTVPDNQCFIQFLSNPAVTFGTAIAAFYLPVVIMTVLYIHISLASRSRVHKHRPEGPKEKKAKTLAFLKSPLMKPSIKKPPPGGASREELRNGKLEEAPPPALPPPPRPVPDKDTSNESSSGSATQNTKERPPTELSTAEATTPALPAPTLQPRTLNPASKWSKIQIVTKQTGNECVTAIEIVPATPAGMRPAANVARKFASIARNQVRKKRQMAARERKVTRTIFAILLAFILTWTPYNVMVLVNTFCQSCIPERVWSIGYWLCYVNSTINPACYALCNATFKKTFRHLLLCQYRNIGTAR

[8] = molecular target: Alpha-1D adrenergic receptor (Homo sapiens) (UniProt P25100); experiment: Displacement of [3H]-Prazosin from recombinant full length human adrenergic alpha 1D receptor assessed as residual binding level for radioligand at 10 uM incubated for 60 mins by radiometric scintillation analysis relative to control
Alpha-1D adrenergic receptor (Homo sapiens), sequence (P25100 whole entry): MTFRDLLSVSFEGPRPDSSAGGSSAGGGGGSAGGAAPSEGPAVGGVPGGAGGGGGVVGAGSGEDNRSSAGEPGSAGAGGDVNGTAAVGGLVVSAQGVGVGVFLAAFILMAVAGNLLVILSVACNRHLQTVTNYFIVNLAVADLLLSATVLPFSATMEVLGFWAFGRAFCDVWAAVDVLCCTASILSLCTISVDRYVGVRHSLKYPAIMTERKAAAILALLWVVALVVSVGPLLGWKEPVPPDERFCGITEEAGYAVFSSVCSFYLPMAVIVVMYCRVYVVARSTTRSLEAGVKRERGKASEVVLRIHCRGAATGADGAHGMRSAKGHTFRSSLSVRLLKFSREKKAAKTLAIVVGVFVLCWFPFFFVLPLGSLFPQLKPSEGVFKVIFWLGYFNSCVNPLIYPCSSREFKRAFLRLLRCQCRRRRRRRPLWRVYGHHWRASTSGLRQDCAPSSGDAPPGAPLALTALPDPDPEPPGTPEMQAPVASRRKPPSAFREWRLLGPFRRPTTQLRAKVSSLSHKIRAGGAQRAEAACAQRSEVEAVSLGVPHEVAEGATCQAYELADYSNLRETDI

[9] = molecular target: Adenosine receptor A3 (Homo sapiens) (UniProt P0DMS8); experiment: Displacement of [125I]AB-MECA from recombinant full length human adenosine A3 receptor expressed in CHO-K1 cells assessed as residual binding level for radioligand at 10 uM after 60 mins by radiometric scintillation analysis relative to control; type: cell-based
[10] = molecular target: Neuronal acetylcholine receptor; alpha3/beta4 (Homo sapiens) (UniProt P30926+P32297); experiment: Displacement of [125I] epibatidine from human nicotinic acetylcholine receptor alpha3/beta4 assessed as residual binding level for radioligand at 10 uM incubated for 60 mins by scintillation counting analysis relative to control; type: protein-complex assay
[11] = molecular target: Muscarinic acetylcholine receptor M1 (Rattus norvegicus, UniProt P08482); experiment: Positive allosteric modulation of rat M1 receptor
Muscarinic acetylcholine receptor M1 (Rattus norvegicus, UniProt P08482), sequence (P08482 whole entry): as the sequence (P11229 whole entry) above, with A5V, T254S, P309S, R320K, A337G, I413V counted along it

[12] = molecular target: Melatonin receptor type 1A (Homo sapiens) (UniProt P48039); experiment: Displacement of 2-[1251]-iodomelatonin from human MT1 receptor expressed in CHO-K1 cells assessed as residual binding level for radioligand at 10 uM incubated for180 mins by scintillation counting analysis relative to control; type: cell-based; conditions: time 180.0 min
Melatonin receptor type 1A (Homo sapiens), sequence (P48039 whole entry): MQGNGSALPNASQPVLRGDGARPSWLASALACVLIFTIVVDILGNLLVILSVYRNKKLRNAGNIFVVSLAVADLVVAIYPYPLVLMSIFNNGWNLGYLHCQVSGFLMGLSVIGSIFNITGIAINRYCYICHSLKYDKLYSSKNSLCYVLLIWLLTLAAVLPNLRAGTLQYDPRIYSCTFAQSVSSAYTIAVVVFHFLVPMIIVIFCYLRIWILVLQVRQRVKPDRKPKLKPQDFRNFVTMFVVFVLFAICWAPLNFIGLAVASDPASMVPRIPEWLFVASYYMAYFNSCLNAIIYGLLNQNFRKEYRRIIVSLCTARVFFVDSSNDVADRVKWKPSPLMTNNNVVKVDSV

[13] = Brain to plasma permeability coefficient, Kp in cynomolgus monkey; type: ADME, Macaca fascicularis
[14] = molecular target: Glutamate NMDA receptor (Rattus norvegicus) (UniProt P35439+Q00959+Q00960+Q00961+Q62645+Q8VHN2+Q9R1M7); experiment: Displacement of [3H]-CGP39653 from NMDA glutamate receptor in Wistar rat brain assessed as residual binding level for radioligand at 10 uM incubated for 20 mins by scintillation counting analysis relative to control; type: tissue-based
[15] = Unbound brain-to-plasma concentration ratio in Sprague-Dawley rat at 0.1 to 0.2 mg/kg, iv measured after 0.25 hrs; type: ADME, organism-based; conditions: dose 0.1-0.2 mg/kg, read-out: K(p,uu,brain)
[16] = molecular target: Mu-type opioid receptor (Homo sapiens) (UniProt P35372); experiment: Displacement of [3H]-Diprenorphine from recombinant full length human mu opioid receptor expressed in CHO-K1 cells assessed as residual binding level for radioligand at 10 uM incubated for 60 mins by scintillation counting analysis relative to control; type: cell-based
[17] = Brain to plasma permeability coefficient, Kp in Sprague-Dawley rat at 0.1 to 0.2 mg/kg, iv measured after 0.25 hrs; type: ADME, organism-based; conditions: dose 0.1-0.2 mg/kg
[18] = molecular target: Voltage-dependent N-type calcium channel subunit alpha-1B (Rattus norvegicus) (UniProt Q02294); experiment: Displacement of [125I]-w-conotoxin GIVA from N-type calcium channel Cav2.2 in Wistar rat brain membrane assessed as residual binding level for radioligand at 10 uM incubated for 30 mins by radiometric scintillation analysis relative to control; type: cell membranes
[19] = organism: Rattus norvegicus; experiment: Displacement of [3H]-Kainic acid from Glutamate ionotropic kainate receptor in Wistar rat brain assessed as residual binding level for radioligand at 10 uM incubated for 120 mins by scintillation counting analysis relative to control; type: tissue-based
[20] = molecular target: T1, Muscarinic acetylcholine receptor M4 (Homo sapiens) (UniProt P08173); experiment: Positive allosteric modulation of human M4 receptor/Gqi5 in presence of EC20 acetylcholine by calcium mobilization assay relative to acetylcholine; type: functional; conditions: filed as positive allosteric modulator
T1 sequence (whole entry): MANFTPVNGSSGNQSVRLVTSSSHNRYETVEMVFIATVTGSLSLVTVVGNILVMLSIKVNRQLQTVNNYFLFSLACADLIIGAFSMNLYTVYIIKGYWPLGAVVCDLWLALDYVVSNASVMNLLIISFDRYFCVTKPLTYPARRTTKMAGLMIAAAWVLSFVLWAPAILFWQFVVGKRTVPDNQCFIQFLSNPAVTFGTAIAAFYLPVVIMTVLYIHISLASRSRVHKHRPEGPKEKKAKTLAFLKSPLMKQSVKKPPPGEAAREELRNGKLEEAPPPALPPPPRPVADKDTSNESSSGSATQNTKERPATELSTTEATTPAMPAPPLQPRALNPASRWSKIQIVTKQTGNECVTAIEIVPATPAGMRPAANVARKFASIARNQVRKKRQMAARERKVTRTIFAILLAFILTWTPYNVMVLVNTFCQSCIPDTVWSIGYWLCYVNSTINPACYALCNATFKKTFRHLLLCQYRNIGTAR

[21] = Fraction unbound in human plasma; type: ADME, cell-free
[22] = molecular target: Substance-P receptor (Homo sapiens) (UniProt P25103); experiment: Displacement of [3H]substance P from recombinant full length human NK1R expressed in CHO cells assessed as residual binding level for radioligand at 10 uM after 90 mins by radiometric scintillation analysis relative to control; type: cell-based
[23] = molecular target: Adenosine receptor A2a (Homo sapiens) (UniProt P29274); experiment: Displacement of [3H]CGS-21680 from full length recombinant human A2A receptor expressed in HEK293 cells assessed as residual binding level for radioligand at 10 uM measured after 90 mins radiometric scintillation analysis relative to control; type: cell-based
Adenosine receptor A2a (Homo sapiens), sequence (P29274 whole entry): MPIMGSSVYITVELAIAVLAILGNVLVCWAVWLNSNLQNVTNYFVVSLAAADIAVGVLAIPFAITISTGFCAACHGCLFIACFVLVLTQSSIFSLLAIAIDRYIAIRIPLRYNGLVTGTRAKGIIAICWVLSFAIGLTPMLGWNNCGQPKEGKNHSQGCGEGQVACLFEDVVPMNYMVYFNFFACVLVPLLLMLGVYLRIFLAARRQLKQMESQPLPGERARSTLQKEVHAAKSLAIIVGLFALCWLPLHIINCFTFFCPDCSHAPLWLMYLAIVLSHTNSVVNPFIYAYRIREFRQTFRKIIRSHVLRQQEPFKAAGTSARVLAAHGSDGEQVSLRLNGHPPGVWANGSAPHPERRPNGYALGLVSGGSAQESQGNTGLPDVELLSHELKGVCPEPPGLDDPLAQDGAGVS

[24] = Volume of distribution at steady state in cynomolgus monkey; type: ADME, Macaca fascicularis; conditions: in vivo, read-out: Vdss
[25] = molecular target: L-type calcium channel Cav1.2, dihydropyridine binding site (Rattus norvegicus, UniProt P22002); experiment: Displacement of [3H]-Nitrendipine from L-type calcium channel Cav1.2 dihydropyridine binding site in Wistar rat brain assessed as residual binding level for radioligand at 10 uM incubated for 90 mins by radiometric scintillation analysis relative to control; type: tissue-based; conditions: probe [3H]-Nitrendipine, read-out: Activity
L-type calcium channel Cav1.2, dihydropyridine binding site, sequence (P22002 whole entry): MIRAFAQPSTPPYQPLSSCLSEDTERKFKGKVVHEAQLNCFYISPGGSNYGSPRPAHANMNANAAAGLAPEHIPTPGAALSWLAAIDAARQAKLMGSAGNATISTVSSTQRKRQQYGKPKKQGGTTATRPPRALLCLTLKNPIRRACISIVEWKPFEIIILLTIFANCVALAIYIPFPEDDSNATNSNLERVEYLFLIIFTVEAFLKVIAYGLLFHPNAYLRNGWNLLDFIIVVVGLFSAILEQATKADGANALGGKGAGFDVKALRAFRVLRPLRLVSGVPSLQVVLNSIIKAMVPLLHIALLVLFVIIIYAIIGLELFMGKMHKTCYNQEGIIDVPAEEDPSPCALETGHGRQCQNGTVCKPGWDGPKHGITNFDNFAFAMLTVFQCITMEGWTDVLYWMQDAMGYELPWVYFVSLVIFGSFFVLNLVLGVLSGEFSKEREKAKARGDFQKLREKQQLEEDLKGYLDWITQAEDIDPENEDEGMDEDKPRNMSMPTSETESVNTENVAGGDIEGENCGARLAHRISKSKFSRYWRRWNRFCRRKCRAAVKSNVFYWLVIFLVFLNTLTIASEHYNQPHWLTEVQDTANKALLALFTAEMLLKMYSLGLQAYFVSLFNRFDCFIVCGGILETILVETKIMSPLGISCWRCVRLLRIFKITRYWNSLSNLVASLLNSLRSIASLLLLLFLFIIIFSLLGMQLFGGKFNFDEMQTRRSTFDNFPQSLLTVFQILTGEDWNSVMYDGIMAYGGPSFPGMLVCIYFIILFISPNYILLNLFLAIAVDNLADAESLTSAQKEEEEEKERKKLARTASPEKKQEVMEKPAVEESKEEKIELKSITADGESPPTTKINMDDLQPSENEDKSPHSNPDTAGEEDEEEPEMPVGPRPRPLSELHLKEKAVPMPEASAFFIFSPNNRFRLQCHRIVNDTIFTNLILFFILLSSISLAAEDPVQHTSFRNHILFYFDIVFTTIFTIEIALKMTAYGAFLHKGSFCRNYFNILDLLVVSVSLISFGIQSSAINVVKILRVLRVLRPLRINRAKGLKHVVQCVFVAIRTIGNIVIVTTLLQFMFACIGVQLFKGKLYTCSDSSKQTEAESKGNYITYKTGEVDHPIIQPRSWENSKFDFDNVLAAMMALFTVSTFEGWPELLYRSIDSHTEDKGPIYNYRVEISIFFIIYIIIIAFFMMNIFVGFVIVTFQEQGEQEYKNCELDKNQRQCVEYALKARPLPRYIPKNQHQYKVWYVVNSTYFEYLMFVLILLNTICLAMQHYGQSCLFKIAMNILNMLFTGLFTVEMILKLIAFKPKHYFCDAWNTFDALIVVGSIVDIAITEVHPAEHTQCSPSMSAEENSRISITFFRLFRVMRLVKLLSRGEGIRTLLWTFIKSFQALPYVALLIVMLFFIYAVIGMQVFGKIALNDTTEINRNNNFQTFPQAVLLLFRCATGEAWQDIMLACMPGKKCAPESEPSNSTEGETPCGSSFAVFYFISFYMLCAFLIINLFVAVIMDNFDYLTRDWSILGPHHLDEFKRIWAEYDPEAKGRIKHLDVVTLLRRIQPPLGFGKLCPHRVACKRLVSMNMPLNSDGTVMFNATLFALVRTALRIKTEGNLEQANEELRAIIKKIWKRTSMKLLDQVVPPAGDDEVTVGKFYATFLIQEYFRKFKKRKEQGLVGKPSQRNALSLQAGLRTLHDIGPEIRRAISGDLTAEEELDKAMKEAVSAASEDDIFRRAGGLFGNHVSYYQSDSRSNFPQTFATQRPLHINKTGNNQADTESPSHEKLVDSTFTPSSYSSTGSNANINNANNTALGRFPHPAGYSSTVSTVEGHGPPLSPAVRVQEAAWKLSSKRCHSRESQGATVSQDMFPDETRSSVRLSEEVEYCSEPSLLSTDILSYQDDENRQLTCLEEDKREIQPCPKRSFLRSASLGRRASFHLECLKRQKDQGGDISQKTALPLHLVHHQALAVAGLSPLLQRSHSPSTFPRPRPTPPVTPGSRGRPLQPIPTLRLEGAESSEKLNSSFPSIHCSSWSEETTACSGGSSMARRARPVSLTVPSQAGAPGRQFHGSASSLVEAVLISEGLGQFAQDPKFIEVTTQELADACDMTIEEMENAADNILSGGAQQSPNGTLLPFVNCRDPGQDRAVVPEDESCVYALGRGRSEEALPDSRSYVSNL

[26] = molecular target: Muscarinic acetylcholine receptor M4 (Rattus norvegicus, UniProt P08485); experiment: Positive allosteric modulation of rat M4 receptor
Muscarinic acetylcholine receptor M4, sequence (P08485 whole entry): as the sequence (P08485 whole entry) above

[27] = tested on: Rattus norvegicus; experiment: Reversal of amphetamine-induced hyperlocomotion in rat at 3 mg/kg, po relative to control; type: functional

In the case of `COc1nnc2sc(C(=O)NC3CN(c4ncc(C(F)(F)F)cn4)C3)c(N)c2c1C`, the Activity [1] is reported as > 50%, the Activity [2] is reported as > 50% and the EC50 [3] is reported as > 30 µM. For the same compound, the Activity [4] was “Active”, the half-life [5] was 1.3 h and the IC50 [6] was > 30 µM. The %max [7] was 93%, the Activity [8] was > 50% and the Activity [9] was > 50%. The Activity [10] was > 50%, the EC50 [11] was > 30 µM and the Activity [12] was > 50%. For the same compound, the Kp [13] was 1.7, the Activity [14] was > 50% and the Kp uu at 0.25 h [15] was 0.73. The Activity [16] was > 50%, the Kp at 0.25 h [17] was 0.34 and the Activity [18] was > 50%. The Activity [19] was > 50%, the %max [20] was 71% and the fraction unbound [21] was 0.02. For the same compound, the Activity [22] was > 50%, the Activity [23] was > 50% and the Vd [24] was 0.74 L/kg. For the same compound, the activity at 1.5 h, 10 µM [25] was > 50%, the EC50 [26] was 0.028 µM and the Activity [27] was 54%.
